Measured values: ChEMBL document CHEMBL4014286, “Discovery of orally active hepatoselective glucokinase activators for treatment of Type II Diabetes Mellitus” (Bioorg Med Chem Lett, 2017)
Values belong to the molecule of their own block, whether it stands above or below them. Activity calls are given as the source filed them. The calls are words filed in the database; no cut-off is given here.

Experiments:
[1] = molecular target: T1, Hexokinase-4 (Homo sapiens, UniProt P35557); assay: Activation of recombinant human glucokinase assessed as conversion of D-glucose to D-glucose-6-phosphate in presence of 10 mM glucose by G6PDH coupled spectrophotometric assay
T1 sequence (P35557 whole entry): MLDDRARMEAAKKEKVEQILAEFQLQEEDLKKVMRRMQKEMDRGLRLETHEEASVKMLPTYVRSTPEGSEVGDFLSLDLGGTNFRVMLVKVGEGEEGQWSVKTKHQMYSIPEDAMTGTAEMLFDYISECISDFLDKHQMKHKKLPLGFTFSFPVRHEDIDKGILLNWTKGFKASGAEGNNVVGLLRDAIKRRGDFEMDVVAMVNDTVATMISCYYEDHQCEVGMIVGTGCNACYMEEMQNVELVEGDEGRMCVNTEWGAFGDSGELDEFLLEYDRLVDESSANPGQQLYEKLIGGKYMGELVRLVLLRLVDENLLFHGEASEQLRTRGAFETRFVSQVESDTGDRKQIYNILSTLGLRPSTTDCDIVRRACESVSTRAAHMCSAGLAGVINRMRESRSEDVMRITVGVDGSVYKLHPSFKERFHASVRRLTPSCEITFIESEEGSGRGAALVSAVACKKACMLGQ

[2] = Apparent permeability of the compound; format: physicochemical; details: not told
[3] = tested on: Mus musculus; assay: Antidiabetic activity in HFD-fed C57BL/6 mouse assessed as decrease in blood glucose level at 10 mg/kg, po; format: functional, organism-based
[4] = Ratio of drug level in HFD-fed C57BL/6 mouse liver to plasma at 10 mg/kg, po measured 4 hrs post dose; format: ADME, organism-based
[5] = Half life in rat; format: ADME; details: in vivo
[6] = tested on: Mus musculus; assay: Toxicity in HFD-fed C57BL/6 mouse assessed as increase in plasma insulin level at 10 mg/kg, po; format: organism-based; details: in vivo
[7] = Ratio of drug level in HFD-fed C57BL/6 mouse liver to pancreas at 10 mg/kg, po measured 4 hrs post dose; format: ADME, organism-based; details: in vivo
[8] = Oral bioavailability in rat; format: ADME, organism-based; details: in vivo
[9] = Clearance in rat; format: ADME; details: in vivo
[10] = Total drug level in HFD-fed C57BL/6 mouse plasma at 10 mg/kg, po measured 4 hrs post dose; format: ADME, organism-based
[11] = Ratio of drug level in HFD-fed C57BL/6 mouse pancreas to plasma at 10 mg/kg, po measured 4 hrs post dose; format: ADME, organism-based
[12] = Total drug level in HFD-fed C57BL/6 mouse liver at 10 mg/kg, po measured 4 hrs post dose; format: ADME, organism-based; details: read-out: Drug uptake
[13] = Total drug level in HFD-fed C57BL/6 mouse pancreas at 10 mg/kg, po measured 4 hrs post dose; format: ADME, organism-based; details: read-out: Drug uptake
[14] = Fraction unbound in C57BL/6 mouse plasma; format: ADME, cell-free
[15] = Mean residence time in rat; format: ADME; details: in vivo
[16] = Ratio of drug level in HFD-fed C57BL/6 mouse liver to pancreas at 30 mg/kg, ip measured 4 hrs post dose; format: ADME, organism-based; details: in vivo
[17] = Total drug level in HFD-fed C57BL/6 mouse liver at 30 mg/kg, ip measured 4 hrs post dose; format: ADME, organism-based; details: read-out: Drug uptake
[18] = Total drug level in HFD-fed C57BL/6 mouse plasma at 30 mg/kg, ip measured 4 hrs post dose; format: ADME, organism-based
[19] = tested on: Mus musculus; assay: Antidiabetic activity in HFD-fed C57BL/6 mouse assessed as decrease in plasma insulin level at 30 mg/kg, ip; format: functional, organism-based
[20] = Ratio of drug level in HFD-fed C57BL/6 mouse liver to plasma at 30 mg/kg, ip measured 4 hrs post dose; format: ADME, organism-based
[21] = Ratio of drug level in HFD-fed C57BL/6 mouse pancreas to plasma at 30 mg/kg, ip measured 4 hrs post dose; format: ADME, organism-based
[22] = tested on: Mus musculus; assay: Antidiabetic activity in HFD-fed C57BL/6 mouse assessed as decrease in blood glucose level at 10 to 30 mg/kg, ip; format: functional, organism-based
[23] = Oral bioavailability in mouse; format: ADME, organism-based; details: in vivo
[24] = Total drug level in HFD-fed C57BL/6 mouse pancreas at 30 mg/kg, ip measured 4 hrs post dose; format: ADME, organism-based; details: read-out: Drug uptake
[25] = tested on: Mus musculus; assay: Toxicity in HFD-fed C57BL/6 mouse assessed as increase in plasma insulin level at 10 mg/kg, ip; format: organism-based; details: in vivo
[26] = Ratio of drug level in HFD-fed C57BL/6 mouse liver to pancreas at 3 mg/kg, po measured 4 hrs post dose; format: ADME, organism-based; details: in vivo
[27] = Total drug level in HFD-fed C57BL/6 mouse pancreas at 3 mg/kg, po measured 4 hrs post dose; format: ADME, organism-based; details: read-out: Drug uptake
[28] = Total drug level in HFD-fed C57BL/6 mouse plasma at 30 mg/kg, po measured 4 hrs post dose; format: ADME, organism-based
[29] = tested on: Mus musculus; assay: Antidiabetic activity in HFD-fed C57BL/6 mouse assessed as decrease in blood glucose level at 30 mg/kg, po; format: functional, organism-based
[30] = Ratio of drug level in HFD-fed C57BL/6 mouse liver to pancreas at 30 mg/kg, po measured 4 hrs post dose; format: ADME, organism-based; details: in vivo
[31] = Ratio of drug level in HFD-fed C57BL/6 mouse liver to plasma at 3 mg/kg, po measured 4 hrs post dose; format: ADME, organism-based
[32] = Total drug level in HFD-fed C57BL/6 mouse plasma at 3 mg/kg, po measured 4 hrs post dose; format: ADME, organism-based
[33] = Total drug level in HFD-fed C57BL/6 mouse pancreas at 30 mg/kg, po measured 4 hrs post dose; format: ADME, organism-based; details: read-out: Drug uptake
[34] = Ratio of drug level in HFD-fed C57BL/6 mouse pancreas to plasma at 3 mg/kg, po measured 4 hrs post dose; format: ADME, organism-based
[35] = Ratio of drug level in HFD-fed C57BL/6 mouse pancreas to plasma at 30 mg/kg, po measured 4 hrs post dose; format: ADME, organism-based
[36] = Ratio of drug level in HFD-fed C57BL/6 mouse liver to plasma at 30 mg/kg, po measured 4 hrs post dose; format: ADME, organism-based
[37] = Total drug level in HFD-fed C57BL/6 mouse liver at 3 mg/kg, po measured 4 hrs post dose; format: ADME, organism-based; details: read-out: Drug uptake
[38] = tested on: Mus musculus; assay: Toxicity in HFD-fed C57BL/6 mouse assessed as increase in plasma insulin level at 30 mg/kg, po; format: organism-based; details: in vivo
[39] = Total drug level in HFD-fed C57BL/6 mouse liver at 30 mg/kg, po measured 4 hrs post dose; format: ADME, organism-based; details: read-out: Drug uptake

SMILES: COc1ccc(Sc2ccc(Sc3ccccn3)nc2C(=O)Nc2ncc(CCC(=O)O)s2)cc1
EC50 [1]: 68.5 nM

SMILES: Cc1ccc(Sc2ccc(Sc3nnc[nH]3)nc2C(=O)Nc2ncns2)cn1
Activity [3]: Active
Kp at 4 h [4]: 4.5
half-life [5]: 162 min
Activity [6]: Toxic
Ratio [7]: 8.9
EC50 [1]: 27.7 nM
Papp [2]: 21 ×10⁻⁶ cm/s
bioavailability [8]: 100%
clearance [9]: 1.9 mL/min/kg
concentration at 4 h [10]: 18.5 µM
Kp at 4 h [11]: 0.5
concentration at 4 h [12]: 77.7 µM
concentration at 4 h [13]: 8.7 µM

SMILES: COc1ccc(Sc2ccc(Sc3nncn3C)nc2C(=O)Nc2ncc(SCC(=O)O)s2)cc1
Ratio [16]: 113
MRT [15]: 38.4 min
half-life [5]: 120 min
concentration at 4 h [17]: 452 µM
concentration at 4 h [18]: 31 µM
EC50 [1]: 51.5 nM
Papp [2]: 2 ×10⁻⁶ cm/s
bioavailability [8]: 1 to 1.2%
Activity [19]: Active
clearance [9]: 115 mL/min/kg
Kp at 4 h [20]: 14.9
Kp at 4 h [21]: 0.16
Activity [22]: Active
bioavailability [23]: 3%
concentration at 4 h [24]: 4 µM
Activity [25]: Non-Toxic

SMILES: O=C(O)Cc1nc(NC(=O)c2nc(Sc3ccccn3)ccc2Sc2ccc(F)cc2)sc1Cl
fraction unbound [14]: 0.049
Ratio [26]: 159
MRT [15]: 84 min
Activity [3]: Active
Kp at 4 h [4]: 12.4
half-life [5]: 234 min
concentration at 4 h [27]: 74 nM
concentration at 4 h [28]: 19.6 µM
Activity [29]: Active
Ratio [30]: 70
Kp at 4 h [31]: 17.7
Activity [6]: Non-Toxic
Ratio [7]: 127 to 128
concentration at 4 h [32]: 620 nM
EC50 [1]: 9.6 nM
Papp [2]: 25 ×10⁻⁶ cm/s
concentration at 4 h [33]: 2100 nM
bioavailability [8]: 25%
clearance [9]: 50 mL/min/kg
concentration at 4 h [10]: 4.5 µM
Kp at 4 h [34]: 0.13
Kp at 4 h [35]: 0.11
Kp at 4 h [11]: 0.1
Kp at 4 h [36]: 6.7
concentration at 4 h [37]: 10.4 µM
concentration at 4 h [12]: 51.5 µM
concentration at 4 h [13]: 0.47 µM
Activity [38]: Toxic
concentration at 4 h [39]: 127 µM

The remaining lines, values ahead:

EC50 [1]: 5.7 nM
Papp [2]: 22 ×10⁻⁶ cm/s
SMILES: COc1ccc(Sc2ccc(Sc3ccccn3)nc2C(=O)Nc2nc(CC(=O)O)c(Cl)s2)cc1

EC50 [1]: 49 nM
SMILES: COc1ccc(Sc2ccc(Sc3ccccn3)nc2C(=O)Nc2nc(CC(=O)O)cs2)cc1

fraction unbound [14]: 0.003
MRT [15]: 45.6 min
half-life [5]: 126 min
EC50 [1]: 14 nM
Papp [2]: 26 ×10⁻⁶ cm/s
bioavailability [8]: 57%
clearance [9]: 28 mL/min/kg
SMILES: COc1ccc(Sc2ccc(Sc3ccccn3)nc2C(=O)Nc2ncc(SCC(=O)O)s2)cc1
